For series [1], the system named is murine brachial plexus and sciatic nerves. Description: Nerve-specificity screening using direct/topical administration. It counts as in vivo, mouse. Conditions: 125 μM, imaged 30 minutes after staining. The essentials: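 Oxazine fluorophores (125 μM in 10% DMSO/5% Kolliphor/65% serum/20% PBS) applied topically to exposed murine nerve for 5 min, then saline-irrigated. Fluorescence imaged 30 min later (620/60 nm excitation, 700/75 nm emission); nerve-to-muscle and nerve-to-adipose ratios taken from co-registered regions of interest, blinded.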

A short description of series [2]: UV-Vis absorption and fluorescence spectroscopy of the Oxazine library. It counts as physicochemical. The conditions noted are these: for Extinction coefficient: Beer's Law plots; for Quantum yield: relative, references Oxazine 1, Oxazine 170, Rhodamine 101. Summed up: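 Absorbance measured at room temperature in 1-cm quartz cuvette, reference corrected; extinction coefficient from Beer's Law plots of absorbance vs concentration. Fluorescence spectra corrected for PMT response; relative quantum yields averaged over multiple measurements against Oxazine 1, Oxazine 170 and Rhodamine 101 references.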

Series [3] has as its system murine brachial plexus and sciatic nerves. The experiment in a line: Nerve-specificity screening using systemic administration. Format: in vivo. The conditions noted are these: IV, 200 nmol, 4 hours prior to imaging.
The next series has as its system nerve and muscle tissue. Description: Ex vivo tissue staining nerve-specificity screening. The text has this: Oxazine derivative library nerve-specificity screening. All 64 Oxazine derivatives were screened for nerve specificity using a previously described ex vivo tissue staining assay (Gibbs, S. L., et al., PloS one 8, e73493 (2013)). Ex vivo nerve and muscle tissue fluorescence intensities varied, with many compounds showing minimal nerve or muscle tissue fluorescence above control autofluorescence following Oxazine derivative staining. […] All Oxazine derivatives were further screened for nerve-specificity in vivo using both direct and systemic administration strategies. The direct administration strategy enabled quantification of nerve-specificity and contrast following fluorophore contact with the nerves and surrounding tissues without the requirement of BNB penetration, providing the most similar comparison to ex vivo nerve-specificity screening. The systemic administration screening studies required not only nerve specificity, but also adequate biodistribution and BNB penetration to generate SBR for visualization.

Series [4] relates to mouse brachial plexus nerves. The experiment in a line: Nerve imaging at depth under muscle tissue. Format: in vivo. The protocol: Nerve imaging at depth studies using a model Oxazine derivative. Oxazine 4 and LGW01-08 were used to stain mouse brachial plexus nerves using both direct and systemic administration methods using the same dose and administration methods previously described. The ability to image the brachial plexus nerve at depth was assessed under varying thicknesses of mouse muscle tissue. Muscle tissue was resected from the peritoneal muscle layer and measured for thickness. One and two layers of resected peritoneal muscle tissue was placed over the stained nerves, providing one and two mm thick homogenous tissue through which the stained nerve tissue was imaged. The same muscle tissue was used to cover the stained nerves from both fluorophores with care taken to orient the muscle in the same way to ensure equivalent comparison. The imaging system configuration was changed to reflect the 700 nm channel in clinically relevant FGS systems (Tummers et al., Eur J Surg Oncol 40, 850-858 (2014); Troyan et al., Ann Surg Oncol 16, 2943-2952 (2009); Ashitate et al., The Journal of surgical research 176, 7-13 (2012); Verbeek et al., The Journal of urology 190, 574-579 (2013); Hillary et al., Langenbecks Arch Surg 403, 111-118 (2018); and Mery et al., Oncotarget 8, 109559-109574 (2017). For fluorescence excitation, the PhotoFluor II was filtered with a 650±22.5 nm bandpass excitation filter. The resulting fluorescence was collected with a 720±30 nm bandpass emission filter for image collection. Camera exposure times ranged from 0.025-4 s for fluorescence image collection.
Image analysis of intraoperative nerve contrast. Custom written MatLab code was used to analyze the tissue specific fluorescence where regions of interest (ROIs) were selected on the nerve, muscle and adipose tissue using the white light images, but blinded to the fluorescence images. These ROIs were then analyzed on the co-registered, matched fluorescence images permitting assessment of the mean tissue intensities as well as the nerve to muscle (N/M) and nerve to adipose (N/A) ratios. Fluorescence intensity measurements were divided by the exposure time to obtain normalized intensity per second measurements. Mean nerve to background tissue ratios (N/M and N/A) were calculated for each Oxazine derivative. For nerve imaging at depth image analysis, fluorescent line profiles and 3-D intensity topographical plots were generated in ImageJ using the plot profile and surface plot functions, respectively. The line profiles were background and exposure time corrected by dividing by the exposure time of each image and subtracting the average intensity of background pixels from the entire line profile. […]

For series [5] the following is noted: reported nerve-specific fluorophores; cited from earlier work.

As for `CC/N=c1/cc2oc3cc4c(cc3nc-2cc1C)C(C)=CC(C)(C)N4` [LGW01-44, (Z)—N-(2,2,4,8-tetramethyl-1,2-dihydro-9H-pyrido[3,2-b]phenoxazin-9-ylidene)ethanaminium], in series [1], the “nerve specificity (N/M contrast vs control group) via direct administration” value was “positive nerve specificity”. Moreover, in series [2], the “Max Abs” value was 648 nm, the “Max Em” value worked out at 664 nm, the “Max Ex” value is on record as 650 nm and the Extinction coefficient was determined as 40124 M⁻¹ cm⁻¹. The molecule further yielded a Quantum yield in series [2] of 21.63%. Moreover, the “nerve specificity / nerve contrast (N/M vs control group) following systemic administration” value in series [3] is on record as “negative for nerve contrast”. Also, the “ex vivo nerve specificity (N/M SBR vs unstained control group)” value in the series on nerve and muscle tissue is “significantly higher N/M SBR compared to the unstained control group”.

Take `CCN=c1cc2oc3cc(NCC)c(C)cc3nc-2cc1C.[O-][Cl+3]([O-])([O-])O` [OX-4, reference compound]: the “width of smallest nerve branches distinguished under muscle tissue” value in series [4] (direct administration, under 1 mm of muscle tissue) is “did not possess the ability to resolve smaller branches”. Besides, in series [4] (following both systemic and direct administration, 700 nm channel filters), the “thickness of muscle tissue under which nerve tissue could be identified” value is recorded as 1 mm. For the same molecule, in series [2], the “Max Abs” value stood at 618 nm, the “Max Em” value was 634 nm, the “Max Ex” value was determined as 620 nm and the Extinction coefficient was 77156 M⁻¹ cm⁻¹. In series [2], this molecule had a Quantum yield of 38.37%. The emission wavelength maximum in series [5] was 635 nm. Moreover, in the series with nerve and muscle tissue, the “ex vivo nerve specificity (N/M SBR vs unstained control group)” value is listed as “lacked nerve-specificity ex vivo”.

Values taken from US11492359B2, “Near-infrared nerve-sparing fluorophores” (OREGON HEALTH & SCIENCE UNIVERSITY, priority 2018, dated 2022).
